{"source": "patent US11931424B2", "about": "“Combination MCL-1 inhibitors with anti-body drug conjugates” (Gilead Sciences, Inc., priority 2021, dated 2024)", "test_system": "panel of breast cancer cell lines", "test": "Compound A with targeted agents and chemotherapies, 72-hour in vitro proliferation assays", "format": "cell-based", "conditions": "72-hour proliferation", "key": {"[1]": {"conditions": "BT-20 cell line, compound A × partner"}, "[2]": {"conditions": "CAL-51 cell line, compound A × partner"}, "[3]": {"conditions": "CAL-85-1 cell line, compound A × partner"}, "[4]": {"conditions": "CAL-120 cell line, compound A × partner"}, "[5]": {"conditions": "CAL-148 cell line, compound A × partner"}, "[6]": {"conditions": "CAMA-1 cell line, compound A × partner"}, "[7]": {"conditions": "DU-4475 cell line, compound A × partner"}, "[8]": {"conditions": "EVSA-T cell line, compound A × partner"}, "[9]": {"conditions": "HCC1143 cell line, compound A × partner"}, "[10]": {"conditions": "MCF7 cells, Compound A × partner agent"}}}
{"smiles": "CCN1CCN(Cc2ccc(Nc3ncc(F)c(-c4cc(F)c5nc(C)n(C(C)C)c5c4)n3)nc2)CC1", "note": "[Abemaciclib]", "values": [{"measurement": "Best CI", "setting": "[1]", "result": 0.79}, {"measurement": "Bliss Volume", "setting": "[1]", "result": 3.95}, {"measurement": "HSA volume", "setting": "[1]", "result": 5.53}, {"measurement": "Loewe Volume", "setting": "[1]", "result": 5.32}, {"measurement": "Best CI", "setting": "[2]", "result": 1.31}, {"measurement": "Bliss Volume", "setting": "[2]", "result": 1.55}, {"measurement": "HSA volume", "setting": "[2]", "result": "−0.56"}, {"measurement": "Loewe Volume", "setting": "[2]", "result": 2.06}, {"measurement": "Synergy Score", "setting": "[2]", "result": 2.51}, {"measurement": "Best CI", "setting": "[3]", "result": 0.77}, {"measurement": "Bliss Volume", "setting": "[3]", "result": 2.60}, {"measurement": "HSA volume", "setting": "[3]", "result": 3.28}, {"measurement": "Loewe Volume", "setting": "[3]", "result": 3.04}, {"measurement": "Synergy Score", "setting": "[3]", "result": 6.47}, {"measurement": "Best CI", "setting": "[4]", "result": 1.78}, {"measurement": "Bliss Volume", "setting": "[4]", "result": "−5.16"}, {"measurement": "HSA volume", "setting": "[4]", "result": "−5.98"}, {"measurement": "Loewe Volume", "setting": "[4]", "result": "−5.00"}, {"measurement": "Synergy Score", "setting": "[4]", "result": 1.03}, {"measurement": "Best CI", "setting": "[5]", "result": 0.70}, {"measurement": "Bliss Volume", "setting": "[5]", "result": 6.48}, {"measurement": "HSA volume", "setting": "[5]", "result": 5.91}, {"measurement": "Loewe Volume", "setting": "[5]", "result": 6.28}, {"measurement": "Synergy Score", "setting": "[5]", "result": 15.50}, {"measurement": "Best CI", "setting": "[6]", "result": 0.32}, {"measurement": "Bliss Volume", "setting": "[6]", "result": "−6.25"}, {"measurement": "HSA volume", "setting": "[6]", "result": "−10.24"}, {"measurement": "Loewe Volume", "setting": "[6]", "result": "−10.33"}, {"measurement": "Synergy Score", "setting": "[6]", "result": 1.56}, {"measurement": "Best CI", "setting": "[7]", "result": 1.25}, {"measurement": "Bliss Volume", "setting": "[7]", "result": 6.92}, {"measurement": "HSA volume", "setting": "[7]", "result": 5.32}, {"measurement": "Loewe Volume", "setting": "[7]", "result": 5.72}, {"measurement": "Synergy Score", "setting": "[7]", "result": 5.07}, {"measurement": "Best CI", "setting": "[8]", "result": 0.64}, {"measurement": "Bliss Volume", "setting": "[8]", "result": 0.41}, {"measurement": "HSA volume", "setting": "[8]", "result": "−2.86"}, {"measurement": "Loewe Volume", "setting": "[8]", "result": "−2.48"}, {"measurement": "Synergy Score", "setting": "[8]", "result": 0.77}, {"measurement": "Best CI", "setting": "HCC38, compound A × partner", "result": 0.83}, {"measurement": "Bliss Volume", "setting": "HCC38, compound A × partner", "result": "−4.64"}, {"measurement": "HSA volume", "setting": "HCC38, compound A × partner", "result": "−4.71"}, {"measurement": "Loewe Volume", "setting": "HCC38, compound A × partner", "result": "−4.54"}, {"measurement": "Synergy Score", "setting": "HCC38, compound A × partner", "result": 6.14}, {"measurement": "Best CI", "setting": "HCC70, compound A × partner", "result": 0.92}, {"measurement": "Bliss Volume", "setting": "HCC70, compound A × partner", "result": 10.18}, {"measurement": "HSA volume", "setting": "HCC70, compound A × partner", "result": 6.99}, {"measurement": "Loewe Volume", "setting": "HCC70, compound A × partner", "result": 8.33}, {"measurement": "Synergy Score", "setting": "HCC70, compound A × partner", "result": 18.15}, {"measurement": "Best CI", "setting": "[9]", "result": 0.41}, {"measurement": "Bliss Volume", "setting": "[9]", "result": 10.33}, {"measurement": "HSA volume", "setting": "[9]", "result": 2.87}, {"measurement": "Loewe Volume", "setting": "[9]", "result": 9.43}, {"measurement": "Synergy Score", "setting": "[9]", "result": 7.43}, {"measurement": "Best CI", "setting": "HCC1569, compound A × partner", "result": 0.18}, {"measurement": "Bliss Volume", "setting": "HCC1569, compound A × partner", "result": 14.07}, {"measurement": "HSA volume", "setting": "HCC1569, compound A × partner", "result": 13.17}, {"measurement": "Loewe Volume", "setting": "HCC1569, compound A × partner", "result": 14.38}, {"measurement": "Synergy Score", "setting": "HCC1569, compound A × partner", "result": 19.73}, {"measurement": "Bliss Volume", "setting": "HCC1806, compound A × partner", "result": 4.89}, {"measurement": "HSA volume", "setting": "HCC1806, compound A × partner", "result": 0.30}, {"measurement": "Loewe Volume", "setting": "HCC1806, compound A × partner", "result": 3.10}, {"measurement": "Synergy Score", "setting": "HCC1806, compound A × partner", "result": 4.43}, {"measurement": "Best CI", "setting": "HCC1937, compound A × partner", "result": 0.26}, {"measurement": "Bliss Volume", "setting": "HCC1937, compound A × partner", "result": 16.67}, {"measurement": "Loewe Volume", "setting": "HCC1937, compound A × partner", "result": 16.44}, {"measurement": "Synergy Score", "setting": "HCC1937, compound A × partner", "result": 28.56}, {"measurement": "Best CI", "setting": "HCC1954, compound A × partner", "result": 0.89}, {"measurement": "Bliss Volume", "setting": "HCC1954, compound A × partner", "result": 1.45}, {"measurement": "HSA volume", "setting": "HCC1954, compound A × partner", "result": "−0.39"}, {"measurement": "Loewe Volume", "setting": "HCC1954, compound A × partner", "result": "−1.29"}, {"measurement": "Synergy Score", "setting": "HCC1954, compound A × partner", "result": 12.74}, {"measurement": "Best CI", "setting": "HCC2218, compound A × partner", "result": 1.44}, {"measurement": "Bliss Volume", "setting": "HCC2218, compound A × partner", "result": "−2.40"}, {"measurement": "HSA volume", "setting": "HCC2218, compound A × partner", "result": "−5.74"}, {"measurement": "Loewe Volume", "setting": "HCC2218, compound A × partner", "result": "−6.61"}, {"measurement": "Synergy Score", "setting": "HCC2218, compound A × partner", "result": 4.14}, {"measurement": "Best CI", "setting": "HDQ-P1, compound A × partner", "result": 0.82}, {"measurement": "Bliss Volume", "setting": "HDQ-P1, compound A × partner", "result": "−0.79"}, {"measurement": "HSA volume", "setting": "HDQ-P1, compound A × partner", "result": "−0.19"}, {"measurement": "Loewe Volume", "setting": "HDQ-P1, compound A × partner", "result": 0.43}, {"measurement": "Synergy Score", "setting": "HDQ-P1, compound A × partner", "result": 2.48}, {"measurement": "Best CI", "setting": "HMC-1-8, compound A × partner", "result": 0.30}, {"measurement": "Bliss Volume", "setting": "HMC-1-8, compound A × partner", "result": 24.27}, {"measurement": "HSA volume", "setting": "HMC-1-8, compound A × partner", "result": 13.46}, {"measurement": "Loewe Volume", "setting": "HMC-1-8, compound A × partner", "result": 13.14}, {"measurement": "Synergy Score", "setting": "HMC-1-8, compound A × partner", "result": 24.23}, {"measurement": "Best CI", "setting": "JIMT-1, compound A × partner", "result": 1.23}, {"measurement": "Bliss Volume", "setting": "JIMT-1, compound A × partner", "result": 1.74}, {"measurement": "HSA volume", "setting": "JIMT-1, compound A × partner", "result": 1.30}, {"measurement": "Loewe Volume", "setting": "JIMT-1, compound A × partner", "result": 1.54}, {"measurement": "Synergy Score", "setting": "JIMT-1, compound A × partner", "result": 1.34}, {"measurement": "Best CI", "setting": "KPL-1, compound A × partner", "result": 0.77}, {"measurement": "Bliss Volume", "setting": "KPL-1, compound A × partner", "result": "−3.02"}, {"measurement": "HSA volume", "setting": "KPL-1, compound A × partner", "result": "−1.63"}, {"measurement": "Loewe Volume", "setting": "KPL-1, compound A × partner", "result": "−2.87"}, {"measurement": "Best CI", "setting": "[10]", "result": 1.06}, {"measurement": "Bliss Volume", "setting": "[10]", "result": 4.62}, {"measurement": "HSA volume", "setting": "[10]", "result": 4.76}, {"measurement": "Synergy Score", "setting": "[10]", "result": 8.46}]}
